Assay results as given in patent publication US5763212A, “Inhibiting degradation of a degron-bearing protein” (California Institute of Technology, priority 1995, dated 1998).
Residues, ends and D or L forms follow the SMILES beside them.

Test system: Arg-e^K-DHFRha (mouse dihydrofolate reductase with e^K extension and ha epitope, from Ub-Arg-e^K-DHFRha)
Experiment: Degradation of 35S-labeled N-end rule substrate in ATP-supplemented reticulocyte extract (acid-soluble 35S, SDS-PAGE)
Type: biochemical
Settings: for inhibition of Arg-e^K-DHFRha degradation: FIG. 3A

| inhibition of Arg-e^K-DHFRha degradation (20 μM methotrexate, ATP-supplemented reticulocyte extract, 37° C.) | effect on multiubiquitination of Arg-e^K-DHFRha (20 μM methotrexate, ATP-supplemented reticulocyte extract, SDS-PAGE) | inhibition of Arg-e^K-DHFRha degradation (1 mM Arg-Ala dipeptide, reticulocyte extract) | effect on ubiquitination of Arg-e^K-DHFRha (1 mM Arg-Ala dipeptide, reticulocyte extract, SDS-PAGE) | SMILES |
| --- | --- | --- | --- | --- |
| nearly complete inhibition | enhanced | – | – | CN(Cc1cnc2nc(N)nc(N)c2n1)c1ccc(C(=O)N[C@@H](CCC(=O)O)C(=O)O)cc1 [methotrexate] |
| – | – | almost completely inhibited | inhibited | C[C@H](NC(=O)[C@@H](N)CCCNC(=N)N)C(=O)O [Arg-Ala] (H-Arg-Ala-OH) |
